Results from ChEMBL document CHEMBL5046318, “Development of 6-Methanesulfonyl-8-nitrobenzothiazinone Based Antitubercular Agents” (ACS Med Chem Lett, 2022).
Values after ≈ are worked out from the molar mass of the structure shown.

Key:
[1] = Metabolic stability in mouse liver microsomes assessed as intrinsic clearance at 1 uM preincubated for 10 mins followed by NADPH addition and further incubated upto 60 mins by LC-MS/MS analysis; type: ADME, Microsome; settings: time 70 min, read-out: CLH
[2] = Plasma protein binding in human; type: ADME, cell-free; settings: read-out: PPB (converted)
[3] = Metabolic stability in mouse liver microsomes assessed as half life at 1 uM preincubated for 10 mins followed by NADPH addition and further incubated upto 60 mins by LC-MS/MS analysis; type: ADME, Microsome; settings: time 70 min
[4] = Metabolic stability in human liver microsomes assessed as intrinsic clearance at 1 uM preincubated for 10 mins followed by NADPH addition and further incubated upto 60 mins by LC-MS/MS analysis; type: ADME, Microsome; settings: time 70 min, read-out: CLH
[5] = molecular target: T1, Decaprenylphosphoryl-beta-D-ribose oxidase (Mycobacterium tuberculosis (strain ATCC 25618 / H37Rv), UniProt P9WJF1); test: Inhibition of Mycobacterium tuberculosis H37Rv recombinant DprE1 expressed in Escherichia coli assessed as formation of resorufin using FPR as substrate by Amplex Red hydrogen/peroxidase coupled assay
T1 sequence (P9WJF1 whole entry): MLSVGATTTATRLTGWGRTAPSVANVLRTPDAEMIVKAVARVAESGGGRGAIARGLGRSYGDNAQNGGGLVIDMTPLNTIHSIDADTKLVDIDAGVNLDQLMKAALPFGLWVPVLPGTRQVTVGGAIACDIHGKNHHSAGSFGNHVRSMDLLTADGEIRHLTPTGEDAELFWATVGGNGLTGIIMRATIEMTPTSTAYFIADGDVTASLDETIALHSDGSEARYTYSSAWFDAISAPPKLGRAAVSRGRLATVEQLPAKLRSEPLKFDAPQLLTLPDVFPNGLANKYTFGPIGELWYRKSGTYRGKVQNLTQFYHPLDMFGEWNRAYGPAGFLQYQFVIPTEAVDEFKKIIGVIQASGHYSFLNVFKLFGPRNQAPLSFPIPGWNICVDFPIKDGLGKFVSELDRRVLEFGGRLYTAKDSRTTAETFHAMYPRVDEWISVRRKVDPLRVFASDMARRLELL

[6] = tested on: Mycobacterium tuberculosis; test: Antitubercular activity against Mycobacterium tuberculosis H37Rv assessed as bacterial growth inhibition incubated for […] by MABA assay; type: functional
[7] = Metabolic stability in human liver microsomes assessed as half life at 1 uM preincubated for 10 mins followed by NADPH addition and further incubated upto 60 mins by LC-MS/MS analysis; type: ADME, Microsome; settings: time 70 min
[8] = Thermodynamic solubility of compound at pH 7.4 aqueous phosphate buffer; type: physicochemical; settings: read-out: Therm_solubility

SMILES | IC50 [5] | MIC [6] | also measured
CS(=O)(=O)c1cc([N+](=O)[O-])c2sc(N3CCN(CC4CCCCC4)CC3)nc(=O)c2c1 | 0.05 µM | 0.01 µM (≈ 0.00467 µg/mL) | CLint scaled at 1 µM [1]: 129 mL/min/kg; fraction unbound [2]: 0.025; half-life at 1 µM [3]: 42.1 min; CLint scaled at 1 µM [4]: 60.5 mL/min/kg; half-life at 1 µM [7]: 28.8 min
CS(=O)(=O)c1cc([N+](=O)[O-])c2sc(N3CCN(CC4CCCCC4)C4(CC4)C3)nc(=O)c2c1 | 3.9 µM | 0.04 µM (≈ 0.0197 µg/mL) | CLint scaled at 1 µM [1]: 163 mL/min/kg; solubility thermodynamic [8]: 0.7 µg/mL (≈ 1.42 µM); fraction unbound [2]: 0.016; half-life at 1 µM [3]: 33.5 min; CLint scaled at 1 µM [4]: 77 mL/min/kg; half-life at 1 µM [7]: 22.6 min
CS(=O)(=O)c1cc([N+](=O)[O-])c2sc(N3CCN(S(=O)(=O)C4CC4)CC3)nc(=O)c2c1 | 7.1 µM | 0.3 µM (≈ 0.142 µg/mL) | 
CS(=O)(=O)c1cc([N+](=O)[O-])c2sc(N3CCCN(S(=O)(=O)c4ccccc4)CC3)nc(=O)c2c1 |  | > 3.5 µM | 
CC(C)CN1CCCN(c2nc(=O)c3cc(S(C)(=O)=O)cc([N+](=O)[O-])c3s2)CC1 | 1.3 µM | 0.07 µM (≈ 0.0308 µg/mL) | 
CS(=O)(=O)c1cc([N+](=O)[O-])c2sc(N3CCN(Cc4cccs4)CC3)nc(=O)c2c1 |  | 0.25 µM (≈ 0.117 µg/mL) | 
CS(=O)(=O)c1cc([N+](=O)[O-])c2sc(N3CCN(C(=O)c4ccccc4)CC3)nc(=O)c2c1 |  | > 64 µM | 
CS(=O)(=O)c1cc([N+](=O)[O-])c2sc(N3CCN(CC4CCC(F)(F)CC4)CC3)nc(=O)c2c1 | 1.1 µM | 0.03 µM (≈ 0.0151 µg/mL) | CLint scaled at 1 µM [1]: 92.4 mL/min/kg; solubility thermodynamic [8]: 0.81 µg/mL (≈ 1.61 µM); fraction unbound [2]: 0.021; half-life at 1 µM [3]: 59 min; CLint scaled at 1 µM [4]: 45.1 mL/min/kg; half-life at 1 µM [7]: 38.6 min
CS(=O)(=O)c1cc([N+](=O)[O-])c2sc(N3CCN(CC4CCOCC4)CC3)nc(=O)c2c1 | 10.3 µM | 0.51 µM (≈ 0.239 µg/mL) | 
CS(=O)(=O)c1cc([N+](=O)[O-])c2sc(N3CCN(CC4CCC(C(F)(F)F)CC4)CC3)nc(=O)c2c1 (configuration not stated) |  | 1.87 µM (≈ 1 µg/mL) | 
CS(=O)(=O)c1cc([N+](=O)[O-])c2sc(N3CCCN(S(=O)(=O)C4CC4)CC3)nc(=O)c2c1 | 16.7 µM | 0.94 µM (≈ 0.459 µg/mL) | 
CC(C)CCN1CCCN(c2nc(=O)c3cc(S(C)(=O)=O)cc([N+](=O)[O-])c3s2)CC1 |  | 0.49 µM (≈ 0.223 µg/mL) | 
CS(=O)(=O)c1cc([N+](=O)[O-])c2sc(N3CCN(CC4CCSCC4)CC3)nc(=O)c2c1 |  | 0.1 µM (≈ 0.0485 µg/mL) | 
CS(=O)(=O)c1cc([N+](=O)[O-])c2sc(N3CCCN(CC4CCCCC4)CC3)nc(=O)c2c1 | 1.1 µM | 0.07 µM (≈ 0.0336 µg/mL) | 
CS(=O)(=O)c1cc([N+](=O)[O-])c2sc(N3CCCN(CC4CCCC4)CC3)nc(=O)c2c1 | 4.4 µM | 0.15 µM (≈ 0.07 µg/mL) | 
CS(=O)(=O)c1cc([N+](=O)[O-])c2sc(N3CCN(CC4CCCCC4)C(=O)C3)nc(=O)c2c1 |  | 0.07 µM (≈ 0.0336 µg/mL) | 
CCS(=O)(=O)N1CCCN(c2nc(=O)c3cc(S(C)(=O)=O)cc([N+](=O)[O-])c3s2)CC1 |  | > 2 µM | 
CS(=O)(=O)c1cc([N+](=O)[O-])c2sc(N3CCN(C(=O)C4CCCCC4)CC3)nc(=O)c2c1 |  | 0.96 µM (≈ 0.461 µg/mL) | 
CCCCS(=O)(=O)N1CCN(c2nc(=O)c3cc(S(C)(=O)=O)cc([N+](=O)[O-])c3s2)CC1 | 1.4 µM | 0.09 µM (≈ 0.0442 µg/mL) | 
CS(=O)(=O)c1cc([N+](=O)[O-])c2sc(N3CCCN(S(=O)(=O)c4cccs4)CC3)nc(=O)c2c1 |  | > 3.5 µM | 
CS(=O)(=O)c1cc([N+](=O)[O-])c2sc(N3CCN(Cc4ccccc4)CC3)nc(=O)c2c1 |  | 0.21 µM (≈ 0.0967 µg/mL) | 
CS(=O)(=O)c1cc([N+](=O)[O-])c2sc(N3CCN(S(=O)(=O)c4cccs4)CC3)nc(=O)c2c1 |  | 108 µM (≈ 55.8 µg/mL) | 
CS(=O)(=O)c1cc([N+](=O)[O-])c2sc(N3CCN(S(=O)(=O)c4ccccc4)CC3)nc(=O)c2c1 |  | 0.33 µM (≈ 0.168 µg/mL) | 
CC(C)CN1CCN(c2nc(=O)c3cc(S(C)(=O)=O)cc([N+](=O)[O-])c3s2)CC12CC2 |  | 0.17 µM (≈ 0.0769 µg/mL) | 
CCS(=O)(=O)N1CCN(c2nc(=O)c3cc(S(C)(=O)=O)cc([N+](=O)[O-])c3s2)CC1 | 6.7 µM | 0.26 µM (≈ 0.12 µg/mL) | 
CCCCS(=O)(=O)N1CCCN(c2nc(=O)c3cc(S(C)(=O)=O)cc([N+](=O)[O-])c3s2)CC1 |  | > 2 µM | 
CS(=O)(=O)c1cc([N+](=O)[O-])c2sc(N3CCCN(Cc4ccccc4)CC3)nc(=O)c2c1 |  | 0.48 µM (≈ 0.228 µg/mL) | 
CCCCCN1CCCN(c2nc(=O)c3cc(S(C)(=O)=O)cc([N+](=O)[O-])c3s2)CC1 |  | 0.49 µM (≈ 0.223 µg/mL) | 
O=c1nc(N2CCN(CC3CCCCC3)CC2)sc2c([N+](=O)[O-])cc(C(F)(F)F)cc12 [MACOZINONE] |  |  | CLint scaled at 1 µM [1]: 174 mL/min/kg; solubility thermodynamic [8]: < 0.01 µg/mL; fraction unbound [2]: < 0.001; half-life at 1 µM [3]: 31.5 min; CLint scaled at 1 µM [4]: 28.1 mL/min/kg; half-life at 1 µM [7]: 62.1 min
